compound: CC(C)C[C@H](NC(=O)[C@H](CCc1ccccc1)NC(=O)CN1CCOCC1)C(=O)N[C@@H](Cc1ccccc1)C(=O)N[C@@H](CC(C)C)C(=O)[C@@]1(C)CO1 [Carfilzomib] + C[C@]1(O)C[C@@H](c2nc(-c3ccc4ccc(-c5ccccc5)nc4c3)c3c(N)nccn32)C1 [Linsitinib] (partner 1 µM); assay: relative viability (nuclei count vs DMSO), 5 days (fraction); higher = more cells survive; details: first compound 0.003162 µM
How it was run: (§1)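 Cells from lung cancer lines were seeded into 1536-well plates and, one day later, dosed by pin tool. Treatments were either a single drug or a fixed dose of an anchor drug with five library-drug doses (not always all listed) in √10 steps. After 5 days, nuclei were stained in a one-step fixation (final 0.05% Triton X-100, 1% formaldehyde, 1 ug/ml Hoechst) and counted on 4× images, and relative viability is the treated-to-vehicle nuclei ratio, as the median of duplicate plates.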

Row | Cell Line | relative viability
1 | A549 | 0.756
2 | A-427 | 1.11
3 | ABC-1 | 0.665
4 | BEN | 1.21
5 | CAL-12T | 0.923
6 | COR-L23 | 1.05
7 | COR-L 105 | 1.05
8 | Calu-6 | 1.15
9 | EBC-1 | 0.989
10 | EKVX | 1.2
11 | EMC-BAC-2 | 0.786
12 | EPLC-272H | 1.32
13 | H3255 | 1.06
14 | HARA | 1.03
15 | HCC-15 | 0.958
16 | HCC-44 | 0.75
17 | HCC-78 | 0.585
18 | HCC-366 | 0.666
19 | HCC-827 | 0.979
20 | HOP-62 | 0.992
21 | IA-LM | 0.687
22 | LC-2-ad | 0.907
23 | LCLC-97TM1 | 0.178
24 | LCLC-103H | 0.882
25 | LK-2 | 0.837
26 | NCI-H1299 | 1.05
27 | NCI-H1563 | 1.26
28 | NCI-H1703 | 1.22
29 | NCI-H1792 | 0.632

same assay, conditions: first compound 0.01 µM

Row | Cell Line | relative viability
30 | 201T | 1.1
31 | A549 | 0.546
32 | A-427 | 1.11
33 | ABC-1 | 0.527
34 | BEN | 0.965
35 | CAL-12T | 0.876
36 | COR-L23 | 0.867
37 | COR-L 105 | 0.879
38 | Calu-6 | 0.934
39 | EBC-1 | 0.735
40 | EKVX | 1.08
41 | EMC-BAC-2 | 0.844
42 | EPLC-272H | 1.16
43 | H3255 | 0.995
44 | HARA | 1.07
45 | HCC-15 | 0.937
46 | HCC-44 | 0.673
47 | HCC-78 | 0.545
48 | HCC-366 | 0.611
49 | HCC-827 | 1.05
50 | HOP-62 | 0.924
51 | IA-LM | 0.836
52 | LC-2-ad | 0.907
53 | LCLC-97TM1 | 0.207
54 | LCLC-103H | 1.06
55 | LK-2 | 0.497
56 | NCI-H1299 | 0.971
57 | NCI-H1563 | 1.25
58 | NCI-H1703 | 0.44
59 | NCI-H1792 | 0.365

same assay, conditions: first compound 0.03162 µM

Row | Cell Line | relative viability
60 | 201T | 1.09
61 | A549 | 0.231
62 | A-427 | 1.01
63 | ABC-1 | 0.235
64 | BEN | 0.865
65 | CAL-12T | 0.57
66 | COR-L23 | 0.0469
67 | COR-L 105 | 0.297
68 | Calu-6 | 0.202
69 | EBC-1 | 0.0736
70 | EKVX | 1.01
71 | EMC-BAC-2 | 0.836
72 | EPLC-272H | 0.193
73 | H3255 | 0.739
74 | HARA | 0.0722
75 | HCC-15 | 0.765
76 | HCC-44 | 0.487
77 | HCC-78 | 0.385
78 | HCC-366 | 0.557
79 | HCC-827 | 0.848
80 | HOP-62 | 0.133
81 | IA-LM | 0.0717
82 | LC-2-ad | 0.462
83 | LCLC-97TM1 | 0.119
84 | LCLC-103H | 1.11
85 | LK-2 | 0.18
86 | NCI-H1299 | 0.239
87 | NCI-H1563 | 1.2
88 | NCI-H1703 | 0.132
89 | NCI-H1792 | 0.633

same assay, conditions: first compound 0.1 µM

Row | Cell Line | relative viability
90 | 201T | 1.02
91 | A549 | 0.0396
92 | A-427 | 0.119
93 | ABC-1 | 0.242
94 | BEN | 0.392
95 | CAL-12T | 0.112
96 | COR-L23 | 0.0604
97 | COR-L 105 | 0.249
98 | Calu-6 | 0.08
99 | EBC-1 | 0.0886
100 | EKVX | 0.33
101 | EMC-BAC-2 | 0.401
102 | EPLC-272H | 0.0783
103 | H3255 | 0.373
104 | HARA | 0.0537
105 | HCC-15 | 0.168
106 | HCC-44 | 0.174
107 | HCC-78 | 0.214
108 | HCC-366 | 0.0209
109 | HCC-827 | 0.406
110 | HOP-62 | 0.0627
111 | IA-LM | 0.0278
112 | LC-2-ad | 0.151
113 | LCLC-97TM1 | 0.127
114 | LCLC-103H | 0.296
115 | LK-2 | 0.177
116 | NCI-H1299 | 0.106
117 | NCI-H1563 | 0.586
118 | NCI-H1703 | 0.0996
119 | NCI-H1792 | 0.339

compound: CC(C)C[C@H](NC(=O)[C@H](CCc1ccccc1)NC(=O)CN1CCOCC1)C(=O)N[C@@H](Cc1ccccc1)C(=O)N[C@@H](CC(C)C)C(=O)[C@@]1(C)CO1 [Carfilzomib] + CCNC(=O)c1noc(-c2cc(C(C)C)c(O)cc2O)c1-c1ccc(CN2CCOCC2)cc1 [Luminespib] (partner 0.01 µM); assay: as above; details: first compound 0.001 µM
How it was run: as §1

Row | Cell Line | relative viability
120 | 201T | 0.999
121 | A-427 | 0.837
122 | ABC-1 | 0.581
123 | BEN | 0.287
124 | CAL-12T | 0.486
125 | COR-L23 | 0.665
126 | COR-L 105 | 0.721
127 | ChaGo-K-1 | 0.581
128 | EKVX | 0.887
129 | EMC-BAC-2 | 1.13
130 | EPLC-272H | 0.266
131 | H3255 | 0.847
132 | HARA | 0.871
133 | HCC-15 | 0.306
134 | HCC-44 | 1.01
135 | HCC-827 | 0.344
136 | HOP-62 | 0.986
137 | LC-2-ad | 0.974
138 | LCLC-97TM1 | 0.743
139 | LCLC-103H | 0.849
140 | LK-2 | 0.221
141 | NCI-H522 | 1.09
142 | NCI-H1563 | 0.538
143 | NCI-H1623 | 0.466
144 | NCI-H1650 | 0.174
145 | NCI-H1792 | 0.425
146 | NCI-H2170 | 0.635
147 | NCI-H2342 | 0.69
148 | SW 900 | 0.164

same assay, conditions: first compound 0.003162 µM

Row | Cell Line | relative viability
149 | 201T | 1.15
150 | A-427 | 1.18
151 | ABC-1 | 1.35
152 | BEN | 0.528
153 | CAL-12T | 0.29
154 | COR-L23 | 0.681
155 | COR-L 105 | 0.737
156 | ChaGo-K-1 | 0.747
157 | EKVX | 0.907
158 | EMC-BAC-2 | 1.24
159 | EPLC-272H | 0.694
160 | H3255 | 0.904
161 | HARA | 0.576
162 | HCC-15 | 0.344
163 | HCC-44 | 1.15
164 | HCC-827 | 0.635
165 | HOP-62 | 0.91
166 | LC-2-ad | 1.19
167 | LCLC-97TM1 | 0.858
168 | LCLC-103H | 0.975
169 | LK-2 | 0.203
170 | NCI-H522 | 1.57
171 | NCI-H1563 | 0.455
172 | NCI-H1623 | 0.527
173 | NCI-H1650 | 0.199
174 | NCI-H1792 | 0.423
175 | NCI-H2170 | 0.666
176 | NCI-H2342 | 1.01
177 | SW 900 | 0.196

same assay, conditions: first compound 0.01 µM

Row | Cell Line | relative viability
178 | 201T | 1.07
179 | A-427 | 1.05
180 | ABC-1 | 0.246
181 | BEN | 0.258
182 | CAL-12T | 0.478
183 | COR-L23 | 0.557
184 | COR-L 105 | 0.788
185 | ChaGo-K-1 | 0.587
186 | EKVX | 0.886
187 | EMC-BAC-2 | 1.26
188 | EPLC-272H | 0.269
189 | H3255 | 0.797
190 | HARA | 0.615
191 | HCC-15 | 0.299
192 | HCC-44 | 0.955
193 | HCC-827 | 0.625
194 | HOP-62 | 0.849
195 | LC-2-ad | 1.12
196 | LCLC-97TM1 | 0.753
197 | LCLC-103H | 0.943
198 | LK-2 | 0.175
199 | NCI-H522 | 1.16
200 | NCI-H1563 | 0.512
201 | NCI-H1623 | 0.563
202 | NCI-H1650 | 0.213
203 | NCI-H1792 | 0.482
204 | NCI-H2170 | 0.612
205 | NCI-H2342 | 0.794
206 | SW 900 | 0.213

same assay, conditions: first compound 0.03162 µM

Row | Cell Line | relative viability
207 | 201T | 1.02
208 | A-427 | 0.141
209 | ABC-1 | 0.193
210 | BEN | 0.248
211 | CAL-12T | 0.16
212 | COR-L23 | 0.0931
213 | COR-L 105 | 0.503
214 | ChaGo-K-1 | 0.523
215 | EKVX | 0.788
216 | EMC-BAC-2 | 1.16
217 | EPLC-272H | 0.151
218 | H3255 | 0.656
219 | HARA | 0.051
220 | HCC-15 | 0.268
221 | HCC-44 | 0.471
222 | HCC-827 | 0.721
223 | HOP-62 | 0.784
224 | LC-2-ad | 0.593
225 | LCLC-97TM1 | 0.27
226 | LCLC-103H | 1.04
227 | LK-2 | 0.17
228 | NCI-H522 | 1.26
229 | NCI-H1563 | 0.457
230 | NCI-H1623 | 0.59
231 | NCI-H1650 | 0.175
232 | NCI-H1792 | 0.456
233 | NCI-H2170 | 0.579
234 | NCI-H2342 | 0.798
235 | SW 900 | 0.172

same assay, conditions: first compound 0.1 µM

Row | Cell Line | relative viability
236 | 201T | 0.915
237 | A-427 | 0.112
238 | ABC-1 | 0.141
239 | BEN | 0.175
240 | CAL-12T | 0.141
241 | COR-L23 | 0.0743
242 | COR-L 105 | 0.236
243 | ChaGo-K-1 | 0.171
244 | EKVX | 0.39
245 | EMC-BAC-2 | 0.225
246 | EPLC-272H | 0.101
247 | H3255 | 0.143
248 | HARA | 0.0562
249 | HCC-15 | 0.0676
250 | HCC-44 | 0.212
251 | HCC-827 | 0.281
252 | HOP-62 | 0.0941
253 | LC-2-ad | 0.265
254 | LCLC-97TM1 | 0.14
255 | LCLC-103H | 0.176
256 | LK-2 | 0.168
257 | NCI-H522 | 0.367
258 | NCI-H1563 | 0.466
259 | NCI-H1623 | 0.345
260 | NCI-H1650 | 0.181
261 | NCI-H1792 | 0.356
262 | NCI-H2170 | 0.311
263 | NCI-H2342 | 0.581
264 | SW 900 | 0.149

Reference: the supplement of paper PMC10307832
